Measurements taken from publication PMC6637423 (Organic & biomolecular chemistry, 2019).

What was measured:
C57BL/6J mice [1] = assay: 55°C warm-water tail-withdrawal assay after i.c.v. administration; format: in vivo, mouse; details: 1 nmol i.c.v., summed over 90 min
C57BL/6J mice [2] = assay: Respiration rate, Oxymax/CLAMS assay; details: morphine 30 mg/kg, i.p., positive control
C57BL/6J mice [3] = assay: 55°C warm-water tail-withdrawal assay after oral; format: in vivo, mouse; details: morphine 5 mg/kg, p.o.

## CN1CC[C@]23c4c5ccc(O)c4O[C@H]2[C@@H](O)C=C[C@H]3[C@H]1C5 [Morphine]
C57BL/6J mice [1]
  Screening: summed tail-withdrawal latency versus vehicle: withdrawal latencies equivalent to vehicle treated animals
C57BL/6J mice [2]
  Respiratory effect versus vehicle: suppressed respiration up to an hour
C57BL/6J mice [3]
  Antinociception after oral administration versus vehicle: significantly higher antinociceptive effects compared to vehicle treated animals
